# Reference: patent publication US20230226133A1, “METHOD FOR EXTRACTING CERAMIDE-CONTAINING MATERIAL OR CERAMIDE FROM WHOLE APPLES AND/OR APPLE JUICE EXTRACTION RESIDUE, AND COMPOSITION INCLUDING SAID CERAMIDE” (priority 2020, published 2023)
# How the values were obtained:
# [1] = test system: memory impairment caused by NMDA receptor blocker MK-801; assay: Passive avoidance test in MK-801 dementia model mice; format: in vivo; conditions: MK-801 alone, 0.2 mg/kg body weight subcutaneous, DDY mice
# Description: In this example, passive avoidance tests using dementia model mice having MK-801 administered thereto were carried out for estimation of effects of the ceramide-containing matter on memory impairments.
# More specifically, 7 week old male DDY mice (available from Japan SLC, Inc.) were pre-fed for experimentation. The ceramide-containing matter suspended in an aqueous solution of 0.5% carboxymethyl cellulose sodium (CMC) was orally administrated to the mice once per day in a dose of 100 mg/kg body weight or 500 mg/kg body weight for six days. At the 7th and 8th days from the onset of administration, training and retention trials of passive avoidance testing were carried out. Ninety (90) minutes before the training trial of passive avoidance testing, 100 mg/kg body weight or 500 mg/kg body weight of the ceramide-containing matter or an aqueous solution of solvent 0.5% CMC were orally administrated to the mice, followed by subcutaneous administration of non-competitive NMDA receptor blocker MK-801 (0.2 mg/kg body weight) or a physiological saline solution 60-minute later. Thirty (30) minutes after that, training trial of passive avoidance testing was carried out, and after the elapse of 24 hours, retention testing was carried out. […]
# [2] = test system: MEK/ERK signaling system in PC-12 cells; assay: MEK-ERK signaling system in neural model cells with MEK inhibitor (western blot); format: cell-based, rat; conditions: UO126 10 μM added 30 minutes before 30 μg/mL ceramide-containing matter
# Description: An inhibitor of MEK that was the upstream kinase of extracellular signal-regulated kinase (ERK1/2) was used to make an estimation of the effect of the ceramide-containing matter on the MEK/ERK signaling system in PC-12 cells. The PC-12 cells were cultured in a D-MEM culture medium containing 5% bovine serum and 5% horse serum. The MEK inhibitor UO126 was dissolved in dimethyl-sulfoxide (DMSO), and the resulting solution was added to the cells in such an amount as to give 10 μM, and 30 minutes after that, the ceramide-containing matter dissolved in DMSO was added to the cells in such an amount as to give 30 μg/mL for 10-minute culture. After culture, the cells were collected for estimation of the phosphorylation ERK1/2 (phospho ERK1/2) level important for memory formation by means of the western blot method using anti-phospho ERK1/2 antibody and/or anti-total ERK1/2 antibody. Note here that a sample treated with nobiletin (30 μM) was used as a positive control.
SMILES,reaction latency in retention trial versus solvent control group [1],"rise of ERK1/2 phosphorylation level caused by the ceramide-containing matter, after MEK inhibitor pretreatment [2]"
C[C@]12N[C@H](Cc3ccccc31)c1ccccc12 [MK-801],significantly lower in the reaction latency,–
N#CC(=C(/N)Sc1ccccc1N)/C(C#N)=C(/N)Sc1ccccc1N [UO126],–,kept low
